According to ChEMBL document CHEMBL3885881, “DrugMatrix”:

Species: Rattus norvegicus
Type: toxicity, organism-based, Sprague-Dawley
Settings: in vivo, po, route oral GAVAGE, […]; for ABSOLUTE EOSINOPHIL / ABSOLUTE LYMPHOCYTE / ABSOLUTE MONOCYTE / ABSOLUTE SEGMENTED NEUTROPHIL / BASOPHIL / EOSINOPHIL / ERYTHROCYTE COUNT / HEMATOCRIT / HEMOGLOBIN / LEUKOCYTE COUNT / LYMPHOCYTE / MEAN CORPUSCULAR HEMOGLOBIN / MEAN CORPUSCULAR HEMOGLOBIN CONCENTRATION / MEAN CORPUSCULAR VOLUME / MONOCYTE / NEUTROPHIL / NUCLEATED RED BLOOD CELLS / PLATELET COUNT: tissue Blood; for ALANINE AMINOTRANSFERASE / ALKALINE PHOSPHATASE / ASPARTATE AMINOTRANSFERASE / BLOOD UREA NITROGEN / CARBON DIOXIDE / CHLORIDE / CHOLESTEROL / CREATINE PHOSPHOKINASE / CREATININE / GLUCOSE / LACTATE DEHYDROGENASE / LIPASE / PHOSPHORUS / POTASSIUM / SODIUM / TOTAL BILIRUBIN / TOTAL PROTEIN / URIC ACID: tissue Plasma
[1] = 100 mg/kg, 24 h, dose level Low, time 1 day
[2] = 700 mg/kg, 6 h, dose level High, time 0.25 day
[3] = 700 mg/kg, 24 h, dose level High, time 1 day

Description: DrugMatrix - Regimen: Single

Cc1ccc(C)c(OCCCC(C)(C)C(=O)O)c1 [GEMFIBROZIL]
ABSOLUTE EOSINOPHIL [1]: 126.33 CELLS/uL
ABSOLUTE LYMPHOCYTE [1]: 13618.33 CELLS/uL
ABSOLUTE MONOCYTE [1]: 235.33 CELLS/uL
ABSOLUTE SEGMENTED NEUTROPHIL [1]: 1320 CELLS/uL
BASOPHIL [1]: 0%
EOSINOPHIL [1]: 0.83%
ERYTHROCYTE COUNT [1]: 5.54 x10E6/uL
HEMATOCRIT [1]: 35.43%
HEMOGLOBIN [1]: 13.82 G/DL
LEUKOCYTE COUNT [1]: 15.3 x10E3/uL
LYMPHOCYTE [1]: 89.17%
MEAN CORPUSCULAR HEMOGLOBIN [1]: 25.02 pg
MEAN CORPUSCULAR HEMOGLOBIN CONCENTRATION [1]: 39 G/DL
MEAN CORPUSCULAR VOLUME [1]: 64.12 fL
MONOCYTE [1]: 1.5%
NEUTROPHIL [1]: 8.5%
NUCLEATED RED BLOOD CELLS [1]: 0 /100WBC
PLATELET COUNT [1]: 879.83 x10E3/uL
ALANINE AMINOTRANSFERASE [1]: 82.17 u/L
ALKALINE PHOSPHATASE [1]: 348.5 u/L
ASPARTATE AMINOTRANSFERASE [1]: 88.67 u/L
BLOOD UREA NITROGEN [1]: 11.17 mg/dL
CARBON DIOXIDE [1]: 30.17 mmol/L
CHLORIDE [1]: 101.33 MEQ/L
CHOLESTEROL [1]: 57.17 mg/dL
CREATINE PHOSPHOKINASE [1]: 237 u/L
CREATININE [1]: 0.18 mg/dL
GLUCOSE [1]: 138.33 mg/dL
LACTATE DEHYDROGENASE [1]: 130.5 u/L
LIPASE [1]: 8.67 u/L
PHOSPHORUS [1]: 9.87 mg/dL
POTASSIUM [1]: 6.21 MEQ/L
SODIUM [1]: 146.35 MEQ/L
TOTAL BILIRUBIN [1]: 0.15 mg/dL
TOTAL PROTEIN [1]: 5.83 G/DL
URIC ACID [1]: 1.02 mg/dL
ABSOLUTE EOSINOPHIL [2]: 0 CELLS/uL
ABSOLUTE LYMPHOCYTE [2]: 11512.83 CELLS/uL
ABSOLUTE MONOCYTE [2]: 281.33 CELLS/uL
ABSOLUTE SEGMENTED NEUTROPHIL [2]: 1289.17 CELLS/uL
BASOPHIL [2]: 0%
EOSINOPHIL [2]: 0%
ERYTHROCYTE COUNT [2]: 5.72 x10E6/uL
HEMATOCRIT [2]: 36.68%
HEMOGLOBIN [2]: 14.32 G/DL
LEUKOCYTE COUNT [2]: 13.08 x10E3/uL
LYMPHOCYTE [2]: 87.5%
MEAN CORPUSCULAR HEMOGLOBIN [2]: 25.02 pg
MEAN CORPUSCULAR HEMOGLOBIN CONCENTRATION [2]: 39.02 G/DL
MEAN CORPUSCULAR VOLUME [2]: 64.17 fL
MONOCYTE [2]: 2.33%
NEUTROPHIL [2]: 10.17%
NUCLEATED RED BLOOD CELLS [2]: 0 /100WBC
PLATELET COUNT [2]: 1058.5 x10E3/uL
ALANINE AMINOTRANSFERASE [2]: 68.17 u/L
ALKALINE PHOSPHATASE [2]: 373.33 u/L
ASPARTATE AMINOTRANSFERASE [2]: 85.5 u/L
BLOOD UREA NITROGEN [2]: 9.83 mg/dL
CARBON DIOXIDE [2]: 30.5 mmol/L
CHLORIDE [2]: 95.17 MEQ/L
CHOLESTEROL [2]: 81.83 mg/dL
CREATINE PHOSPHOKINASE [2]: 224.83 u/L
CREATININE [2]: 0.16 mg/dL
GLUCOSE [2]: 138.17 mg/dL
LACTATE DEHYDROGENASE [2]: 127.17 u/L
LIPASE [2]: 12.33 u/L
PHOSPHORUS [2]: 11.42 mg/dL
POTASSIUM [2]: 6.25 MEQ/L
SODIUM [2]: 143.7 MEQ/L
TOTAL BILIRUBIN [2]: 0.68 mg/dL
TOTAL PROTEIN [2]: 6.2 G/DL
URIC ACID [2]: 1.3 mg/dL
ABSOLUTE EOSINOPHIL [3]: 30.33 CELLS/uL
ABSOLUTE LYMPHOCYTE [3]: 15144 CELLS/uL
ABSOLUTE MONOCYTE [3]: 266 CELLS/uL
ABSOLUTE SEGMENTED NEUTROPHIL [3]: 893 CELLS/uL
BASOPHIL [3]: 0%
EOSINOPHIL [3]: 0.17%
ERYTHROCYTE COUNT [3]: 5.34 x10E6/uL
HEMATOCRIT [3]: 34.55%
HEMOGLOBIN [3]: 13.67 G/DL
LEUKOCYTE COUNT [3]: 16.33 x10E3/uL
LYMPHOCYTE [3]: 92.33%
MEAN CORPUSCULAR HEMOGLOBIN [3]: 25.58 pg
MEAN CORPUSCULAR HEMOGLOBIN CONCENTRATION [3]: 39.58 G/DL
MEAN CORPUSCULAR VOLUME [3]: 64.72 fL
MONOCYTE [3]: 1.67%
NEUTROPHIL [3]: 5.83%
NUCLEATED RED BLOOD CELLS [3]: 0.33 /100WBC
PLATELET COUNT [3]: 1050.67 x10E3/uL
ALANINE AMINOTRANSFERASE [3]: 55.83 u/L
ALKALINE PHOSPHATASE [3]: 484.5 u/L
ASPARTATE AMINOTRANSFERASE [3]: 65.17 u/L
BLOOD UREA NITROGEN [3]: 10.67 mg/dL
CARBON DIOXIDE [3]: 28 mmol/L
CHLORIDE [3]: 100 MEQ/L
CHOLESTEROL [3]: 71 mg/dL
CREATINE PHOSPHOKINASE [3]: 320.67 u/L
CREATININE [3]: 0.21 mg/dL
GLUCOSE [3]: 140.83 mg/dL
LACTATE DEHYDROGENASE [3]: 120.67 u/L
LIPASE [3]: 9.67 u/L
PHOSPHORUS [3]: 10.38 mg/dL
POTASSIUM [3]: 5.59 MEQ/L
SODIUM [3]: 146.73 MEQ/L
TOTAL BILIRUBIN [3]: 0.25 mg/dL
TOTAL PROTEIN [3]: 5.97 G/DL
URIC ACID [3]: 1.07 mg/dL
